In one data set the test system is FAP. Also on record: method as in PMID 32222810. As to conditions: ref (3); cited from earlier work.
For another data set, the system named is U87MG tumor xenografts. The data set is described as follows: Biodistribution (ex vivo γ-counting of organs) in U87MG tumor xenograft mice. Also on record: species or system nude mice (female BALB/c nu/nu). As to conditions: for Tumor uptake: i.v., mean ± SD, n = 3. Here is the method:
(§1) All animal experimental procedures and protocols were approved by the Institutional Animal Care and Use Committee (Renji Hospital, School of Medicine, Shanghai Jiao Tong University). For subcutaneous models, U87MG cells (2 × 10^6 cells in 100 μl PBS) were implanted into the right flank of female BALB/c nu/nu athymic mice to establish subcutaneous tumor xenografts. For orthotopic xenografts, U87MG cells (0.5 × 10^6 cells in […] PBS) were transplanted into the brains of female BALB/c nude mice (4–6 weeks old). The subcutaneous and orthotopic models were ready for PET imaging 3 weeks after tumor cell inoculation.
U87MG mice were injected with 3.7 MBq of each tracer and sacrificed at different times (30, 60, and 90 min p.i.; n = 3 for each time point). The main organs, including the kidney, intestine, liver, heart, lung, muscle, brain, and tumors, were isolated, weighed, and analyzed. The biodistribution in the [^68Ga] Ga-DOTA-FAPI-04 group (3.7 MBq) with approximately 100 μg of unlabeled DOTA-FAPI-04 was also evaluated for comparison. The radioactivity of the samples was determined using an automated γ-counter (Perkin-Elmer), and the uptake of the radiotracers in different organs/tissues was calculated and presented as percent of injected dose per Gram of tissue (%ID/g, mean ± SD).

A short description of data set [1]: In vitro stability in PBS at 37°C (radio-HPLC). To be noted: 150 min. The format is physicochemical. Here is the method: The radiochemical purities were analyzed by a radio-HPLC column (C18-B, 250 mm × 4.6 mm, 5 μm, 120 Å, Morhchem Technologies Inc., United States) (details presented in the Supplementary Material).
For data set [2], the system named is U87MG orthotopic xenograft glioma. Description: Small-animal PET in the U87MG orthotopic xenograft glioma model. The format is in vivo, nude mice (female BALB/c). As to conditions: 60 min p.i., n = 3. Here is the method:
as §1
Ga-DOTA-FAPI-04 were diluted or concentrated to a 74 MBq/mL. […] Ga-DOTA-FAPI-04 was intravenously injected into U87MG tumor-bearing nude mice (n = 3 for each group). For static PET imaging, the acquisition times were 30, 60, and 90 min postinjection (p.i.). Each static scan consists of CT scan and PET scan. The CT scan time is 20 s and the PET scan time is 10 min. […] Regions of interest (ROIs) in the tumor, liver, heart, kidney, brain, and lung were counted on the PET images to quantify the radioactive signals. […] PET data were reconstructed with three-dimensional ordered-subset expectation-maximization (3D-OSEM) algorithm with Monte-Carlo based accurate detector model and subsequently was analyzed with Avatar 1.2 software (Pingseng China).

Where [3] appears, read: 60 min p.i. (time taken from the order of the sentence).
Setting [4] is: 90 min p.i. (time taken from the order of the sentence).
[5] abbreviates: time printed as 'at 60 and 90 min p.i.', one value per probe.

Structures are written as SMILES. Values joined by “and” are separate entries in the source; they are usually repeats but may differ in a detail not shown here. Identical values can stand only once.

As to `COc1ccc2nccc(C(=O)NCC(=O)N3CC(F)(F)C[C@H]3C#N)c2c1` [compound 4, (S)-N-(2-(2-cyano-4,4-difluoropyrrolidin-1-yl)-2-oxoethyl)-6-(methoxy)quinoline-4-carboxamide], the IC50 in the data set on FAP was 8.5 ± 0.9 nM.

Consider `[11CH3]Oc1ccc2nccc(C(=O)NCC(=O)N3CC(F)(F)C[C@H]3C#N)c2c1` [^11C-RJ1102, (S)-N-(2-(2-cyano-4,4-difluoropyrrolidin-1-yl)-2-oxoethyl)-6-(methoxy-11C) quinoline-4-carboxamide], for which, in the data set on U87MG tumor xenografts (30 min p.i.), the Brain uptake came out at 0.16 ± 0.01 %ID/g, the Heart uptake was 0.78 ± 0.10 %ID/g, the Intestine uptake is reported as 5.08 ± 0.24 %ID/g and the Kidney uptake was determined as 1.84 ± 0.01 %ID/g. Moreover, in the data set with U87MG tumor xenografts (30 min p.i.), the Liver uptake was determined as 2.87 ± 0.12 %ID/g, the Lung uptake turned out to be 0.65 ± 0.02 %ID/g, the Muscle uptake worked out at 0.74 ± 0.03 %ID/g and the “T/L ratio (tumor/liver)” value came out at 0.60 ± 0.03. Besides, in the data set with U87MG tumor xenografts (30 min p.i.), the “tumor-to-muscle (T/M) ratio” value is 2.30 ± 0.32 and 2.30 ± 0.02; the Tumor uptake is reported as 1.71 ± 0.08 %ID/g. In the data set on U87MG tumor xenografts (60 min p.i.), this molecule had a Brain uptake of 0.07 ± 0.03 %ID/g, a Heart uptake of 0.26 ± 0.01 %ID/g, an Intestine uptake of 2.63 ± 0.28 %ID/g and a Kidney uptake of 0.48 ± 0.02 %ID/g. In the data set on U87MG tumor xenografts (60 min p.i.), the Liver uptake is listed as 1.00 ± 0.05 %ID/g, the Lung uptake is 0.25 ± 0.03 %ID/g, the Muscle uptake stood at 0.20 ± 0.01 %ID/g and the “T/L ratio (tumor/liver)” value was found to be 0.62 ± 0.03. Also, in the data set with U87MG tumor xenografts (60 min p.i.), the “tumor-to-muscle (T/M) ratio” value was 3.10 ± 0.14 and the Tumor uptake stood at 0.62 ± 0.06 %ID/g. In the data set with U87MG tumor xenografts (setting [3]), the “T/K ratio (tumor/kidney)” value came out at 1.29 ± 0.07. Further, in the data set on U87MG tumor xenografts (90 min p.i.), the Brain uptake was found to be 0.02 ± 0.01 %ID/g, the Heart uptake is listed as 0.07 ± 0.01 %ID/g, the Intestine uptake worked out at 1.10 ± 0.25 %ID/g and the Kidney uptake is listed as 0.13 ± 0.02 %ID/g. Besides, in the data set with U87MG tumor xenografts (90 min p.i.), the Liver uptake came out at 0.29 ± 0.02 %ID/g, the Lung uptake is recorded as 0.06 ± 0.01 %ID/g, the Muscle uptake was found to be 0.04 ± 0.00 %ID/g and the “T/L ratio (tumor/liver)” value was determined as 0.62 ± 0.03. Besides, in the data set with U87MG tumor xenografts (90 min p.i.), the “tumor-to-muscle (T/M) ratio” value is recorded as 4.50 ± 0.50 and the Tumor uptake was 0.18 ± 0.02 %ID/g. For the same molecule, in the data set on U87MG tumor xenografts (setting [4]), the “T/K ratio (tumor/kidney)” value is on record as 1.39 ± 0.06. In addition, the “T/K ratio (tumor/kidney)” value in the data set with U87MG tumor xenografts (setting [5]) came out at 0.93 ± 0.04. The “radioactive purity after incubation in PBS (in vitro stability)” value in data set [1] was “over 99%”. The “tumor accumulation (small-animal PET)” value in data set [2] is given as 0.22 ± 0.02 ID%/g.

In the data set with U87MG tumor xenografts (30 min p.i.), `COc1ccc2nccc(C(=O)NCC(=O)N3CCC[C@H]3C#N)c2c1` [^11C-RJ1101, (S)-N-(2-(2-cyanopyrrolidin-1-yl)-2-oxoethyl)-6-(methoxy-11C)quinoline-4-carboxamide] yielded a Brain uptake of 0.18 ± 0.02 %ID/g, a Heart uptake of 0.59 ± 0.01 %ID/g, an Intestine uptake of 4.95 ± 0.31 %ID/g and a Kidney uptake of 1.28 ± 0.06 %ID/g. In the data set on U87MG tumor xenografts (30 min p.i.), the Liver uptake came out at 7.20 ± 1.71 %ID/g, the Lung uptake was found to be 0.56 ± 0.08 %ID/g, the Muscle uptake came to 0.42 ± 0.04 %ID/g and the “T/L ratio (tumor/liver)” value came out at 0.19 ± 0.03. For the same molecule, in the data set with U87MG tumor xenografts (30 min p.i.), the “tumor-to-muscle (T/M) ratio” value worked out at 3.19 ± 0.06 and the Tumor uptake is recorded as 1.34 ± 0.10 %ID/g. In the data set with U87MG tumor xenografts (60 min p.i.), this molecule yielded a Brain uptake of 0.02 ± 0.00 %ID/g, a Heart uptake of 0.06 ± 0.01 %ID/g, an Intestine uptake of 2.72 ± 0.45 %ID/g and a Kidney uptake of 0.17 ± 0.02 %ID/g. Besides, in the data set with U87MG tumor xenografts (60 min p.i.), the Liver uptake came out at 0.24 ± 0.03 %ID/g, the Lung uptake is on record as 0.05 ± 0.01 %ID/g, the Muscle uptake was 0.06 ± 0.01 %ID/g and the “T/L ratio (tumor/liver)” value was determined as 0.63 ± 0.04. Further, in the data set on U87MG tumor xenografts (60 min p.i.), the “tumor-to-muscle (T/M) ratio” value is on record as 2.26 ± 0.25 and the Tumor uptake worked out at 0.15 ± 0.01 %ID/g. Also, the “T/K ratio (tumor/kidney)” value in the data set on U87MG tumor xenografts (setting [3]) was 0.89 ± 0.05. In addition, in the data set on U87MG tumor xenografts (90 min p.i.), the Heart uptake turned out to be 0.01 ± 0.00 %ID/g, the Intestine uptake is 0.67 ± 0.02 %ID/g, the Kidney uptake is reported as 0.03 ± 0.00 %ID/g and the Liver uptake is reported as 0.06 ± 0.00 %ID/g. Moreover, in the data set with U87MG tumor xenografts (90 min p.i.), the Lung uptake was found to be 0.01 ± 0.00 %ID/g, the Muscle uptake is 0.01 ± 0.00 %ID/g, the “T/L ratio (tumor/liver)” value stood at 0.34 ± 0.06 and the “tumor-to-muscle (T/M) ratio” value amounted to 2.00 ± 0.00. Also, the Tumor uptake in the data set with U87MG tumor xenografts (90 min p.i.) stood at 0.02 ± 0.00 %ID/g. For the same molecule, the “T/K ratio (tumor/kidney)” value with U87MG tumor xenografts (setting [4]) is recorded as 0.67 ± 0.01. Also, the “T/K ratio (tumor/kidney)” value in the data set on U87MG tumor xenografts (setting [5]) was determined as 1.05 ± 0.03. In data set [1], the “radioactive purity after incubation in PBS (in vitro stability)” value is on record as “over 99%”.

The IC50 is the concentration at which inhibition is half-maximal.

(Values after publication PMC9388731, “Radiosynthesis and First Preclinical Evaluation of the Novel ^11C-Labeled FAP Inhibitor ^11C-FAPI: A Comparative Study of ^11C-FAPIs and (^68Ga) Ga-DOTA-FAPI-04 in a High–FAP-Expression Mouse Model” (Frontiers in Chemistry, 2022).)
